# Measurements as given in patent publication US20180036420A1, “METHODS FOR ENHANCING THE DELIVERY OF MOLECULES ACROSS THE BLOOD BRAIN BARRIER” (LAM Therapeutics, Inc., priority 2016, published 2018).
# Assays:
# [1] = system: H4 neuroglioma cells; assay: DIC imaging of endolysosomal (vacuole) phenotype in H4 neuroglioma cells; format: cell-based, human
# Description: FIG. 4: Left: DIC images of H4 transduced with either non-targeting shRNA (control) or hairpin targeted to the PIKFYVE gene (shPIKFYVE). Right: Viability of H4 cells after the induction of either control or PIKFYVE shRNA with doxycycline.
# (§1) PIKfyve produces the lipid products PI(3,5)P2 and PI5P, which in turn serve to establish membrane identity and control endolysosomal dynamics. Studies have shown that the PI(3,5)P2 depletion arising from inhibition of PIKfyve produces a swollen endolysosome phenotype. […] This phenotype was reversible, and cell lines reverted to normal appearance within 3-4 days after drug removal.
# [2] = system: comprehensive panel of kinases (456 kinases); assay: Kinase panel binding screen (456 kinases, PIKfyve not included); settings: screening concentration 1 μM
# Description: Next, apilimod was screened against a comprehensive panel of kinases (PIKfyve not included).
# [3] = system: PI(3,5)P2 in H4 neuroglioma cells; assay: Immunostaining of PI(3,5)P2 in H4 neuroglioma cells; format: cell-based, human; settings: after 24 h
# Description: as §1
structure (smiles),measurement,setting,value
Cc1cccc(/C=N/Nc2cc(N3CCOCC3)nc(OCCc3ccccn3)n2)c1 [apilimod],endolysosomal (vacuole) phenotype,"[1]; H4 neuroglioma cells, 100 nM apilimod, 24 hrs (FIG. 3)",striking swollen endolysosomal (vacuole) phenotype
same,time to revert to normal appearance after drug removal,[1]; after drug removal,3 to 4 days
same,binding to kinases of the panel,[2],did not bind to any of the 456 kinases tested
same,"decrease of PI(3,5)P2",[3],~70%
